Laboratory results published in paper PMC2972222, “Breast Cancer Stem-Like Cells Are Inhibited by a Non-Toxic Aryl Hydrocarbon Receptor Agonist” (PLoS ONE, 2010).

Tests used:
[1] = target: T1, aryl hydrocarbon receptor (AHR) (Mus musculus, UniProt P30561); test: competition radioligand binding, unlabeled 3-MC versus [3-H]-3-MC on antibody-immobilized AHR
T1 construct: native AHR from mouse liver cytosol, immobilized on plate with anti-AHR antibody
T1 sequence (P30561 10-848): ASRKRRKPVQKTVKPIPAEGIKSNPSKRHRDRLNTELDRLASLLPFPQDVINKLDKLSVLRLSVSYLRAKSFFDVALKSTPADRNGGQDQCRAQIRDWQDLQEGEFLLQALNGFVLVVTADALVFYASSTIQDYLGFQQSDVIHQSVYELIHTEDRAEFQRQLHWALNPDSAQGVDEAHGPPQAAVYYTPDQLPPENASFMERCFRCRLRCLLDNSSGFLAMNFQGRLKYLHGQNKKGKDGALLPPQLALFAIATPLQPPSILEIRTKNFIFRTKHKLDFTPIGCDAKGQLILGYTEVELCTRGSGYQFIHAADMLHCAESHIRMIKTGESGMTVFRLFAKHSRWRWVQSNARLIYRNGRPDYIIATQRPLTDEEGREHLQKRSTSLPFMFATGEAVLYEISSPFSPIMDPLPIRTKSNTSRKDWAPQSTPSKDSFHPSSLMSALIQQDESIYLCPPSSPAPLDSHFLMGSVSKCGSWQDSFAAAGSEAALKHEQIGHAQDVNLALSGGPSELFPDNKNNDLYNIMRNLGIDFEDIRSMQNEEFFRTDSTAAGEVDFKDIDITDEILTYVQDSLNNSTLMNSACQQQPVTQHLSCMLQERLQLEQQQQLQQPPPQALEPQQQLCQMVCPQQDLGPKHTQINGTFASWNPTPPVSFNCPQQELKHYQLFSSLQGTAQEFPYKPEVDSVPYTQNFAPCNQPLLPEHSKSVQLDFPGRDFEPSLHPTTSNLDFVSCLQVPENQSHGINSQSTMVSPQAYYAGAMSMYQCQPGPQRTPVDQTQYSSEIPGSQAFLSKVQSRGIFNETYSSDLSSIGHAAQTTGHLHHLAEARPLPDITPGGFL
Excerpt: competition radioligand binding, unlabeled 3-MC versus [3-H]-3-MC on antibody-immobilized AHR on aryl hydrocarbon receptor (AHR) | Competition of tranilast or unlabeled 3-MC with [3-H]-3-MC for binding to plate-immobilized AHR from mouse liver cytosol

[2] = target: T1, aryl hydrocarbon receptor (AHR); test: competition radioligand binding with [3-H]-3-MC on antibody-immobilized AHR

Structure (SMILES) | Ki [1] [µM] | Ki [2] [µM]
Cc1ccc2cc3c(ccc4ccccc43)c3c2c1CC3 [3-methylcholanthrene] | 0.035 | 
COc1ccc(/C=C/C(=O)Nc2ccccc2C(=O)O)cc1OC [tranilast, N-[3,4-dimethoxycinnamoyl]anthranilic acid] |  | 44
